Results on 15 molecules are retold here after patent US12371428B2 (Exelixis, Inc., priority 2019, dated 2025).

The target in experiment [1] is Mer (phospho-Mer, MERTK-transfected 293A cells) (Homo sapiens (Human), UniProt Q12866). The experiment in a line: Mer autophosphorylation ELISA in transient transfected 293A cells (Example H). The experiment is classed as cell-based. The note with it: cellular activity; Mer autophosphorylation ELISA in transient transfected 293A cells. Summed up: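 Inhibition of cellular Mer autophosphorylation is determined in 293A cells transiently expressing human MERTK after 1 h compound exposure (8 concentrations, serum-free, 0.3% DMSO). Phospho-Mer in clarified lysates is measured by ELISA, with DMSO and reference-inhibitor wells defining the 100% and 0% activity limits.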
Chain of Mer (phospho-Mer, MERTK-transfected 293A cells) (Q12866 21-999): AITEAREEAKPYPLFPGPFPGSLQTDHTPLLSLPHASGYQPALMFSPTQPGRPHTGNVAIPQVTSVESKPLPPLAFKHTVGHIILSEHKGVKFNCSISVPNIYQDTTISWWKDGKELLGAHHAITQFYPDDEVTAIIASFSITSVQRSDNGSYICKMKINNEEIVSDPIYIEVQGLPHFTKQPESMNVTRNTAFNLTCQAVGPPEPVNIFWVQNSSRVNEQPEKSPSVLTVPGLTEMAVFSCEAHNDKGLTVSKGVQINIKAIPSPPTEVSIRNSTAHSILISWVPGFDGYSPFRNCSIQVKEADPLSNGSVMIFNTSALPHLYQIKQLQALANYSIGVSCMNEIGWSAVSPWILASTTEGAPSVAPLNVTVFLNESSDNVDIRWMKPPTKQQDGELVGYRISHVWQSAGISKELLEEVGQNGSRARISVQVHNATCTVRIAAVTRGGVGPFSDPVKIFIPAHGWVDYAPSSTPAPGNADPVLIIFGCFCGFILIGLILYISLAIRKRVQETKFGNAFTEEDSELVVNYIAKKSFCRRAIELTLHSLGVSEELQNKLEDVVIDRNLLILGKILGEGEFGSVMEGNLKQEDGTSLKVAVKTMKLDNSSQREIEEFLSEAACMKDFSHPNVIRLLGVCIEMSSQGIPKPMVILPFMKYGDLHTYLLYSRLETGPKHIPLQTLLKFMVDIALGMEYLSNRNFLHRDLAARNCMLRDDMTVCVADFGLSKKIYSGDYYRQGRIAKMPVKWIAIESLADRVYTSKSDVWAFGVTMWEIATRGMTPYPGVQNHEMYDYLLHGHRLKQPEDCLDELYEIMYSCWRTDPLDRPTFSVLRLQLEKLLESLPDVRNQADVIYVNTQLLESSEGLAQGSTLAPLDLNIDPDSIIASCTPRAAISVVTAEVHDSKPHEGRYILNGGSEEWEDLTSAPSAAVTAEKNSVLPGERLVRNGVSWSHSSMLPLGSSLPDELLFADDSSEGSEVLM
In general terms: In an ELISA, binding on a coated surface is turned into a signal by an enzyme label.

In experiment [2] the target is Human MER (residues 528-999) (Homo sapiens (Human), UniProt Q12866). The experiment in a line: Human Mer kinase assay, HTRF KinEase (Example C-2). The experiment is classed as biochemical. The note with it: protocol of Example C-2 (other compounds). Summed up: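 IC50 values from 10 concentrations via 4-parameter logistic fit of […], with DMSO as 100% and 1 μM reference compound as 0% activity. Reaction: MER kinase domain 528-999, 1 ng/well, 40 μM ATP (Km), biotin peptide, 5 mM MgCl2, 1 mM DTT, 3% DMSO, room temperature 60 min; HTRF streptavidin-XL665/Eu-antibody detection.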
Chain of Human MER (residues 528-999) (Q12866 528-999): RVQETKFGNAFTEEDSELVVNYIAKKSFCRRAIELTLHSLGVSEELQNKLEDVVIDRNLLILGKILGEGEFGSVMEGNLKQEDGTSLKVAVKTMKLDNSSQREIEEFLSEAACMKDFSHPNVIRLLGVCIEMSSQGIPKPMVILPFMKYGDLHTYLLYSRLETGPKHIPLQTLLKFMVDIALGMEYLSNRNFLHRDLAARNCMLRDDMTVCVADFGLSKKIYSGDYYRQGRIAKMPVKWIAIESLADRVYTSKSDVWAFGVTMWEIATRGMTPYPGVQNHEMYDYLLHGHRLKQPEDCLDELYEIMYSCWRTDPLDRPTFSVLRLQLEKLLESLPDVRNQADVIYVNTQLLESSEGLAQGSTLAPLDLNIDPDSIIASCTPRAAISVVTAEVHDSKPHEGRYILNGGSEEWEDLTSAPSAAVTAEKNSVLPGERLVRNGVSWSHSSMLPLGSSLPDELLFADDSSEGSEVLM
A general note: In TR-FRET formats the signal depends on donor and acceptor labels being close together.

The target of experiment [3] is Met (phospho-Met, HGF-stimulated PC-3 prostate cancer cells) (Homo sapiens (Human), UniProt P08581). The experiment in a line: Met autophosphorylation ELISA in PC-3 cells (Example F). The class given is cell-based. The note with it: cellular activity; Met autophosphorylation ELISA in PC-3 cells; read-out: c-Met IC50. Summed up: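 Serum-starved (3 h) PC-3 cells were treated 1 h with compounds (8-point curve, 0.3% DMSO), then stimulated with 100 ng/mL human HGF for 10 min. Lysate phospho-Met (panTyr) was measured by sandwich ELISA, normalised to DMSO and reference-inhibitor controls. IC50 came from 4-parameter logistic fit.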
Chain of Met (phospho-Met, HGF-stimulated PC-3 prostate cancer cells) (P08581 25-1390): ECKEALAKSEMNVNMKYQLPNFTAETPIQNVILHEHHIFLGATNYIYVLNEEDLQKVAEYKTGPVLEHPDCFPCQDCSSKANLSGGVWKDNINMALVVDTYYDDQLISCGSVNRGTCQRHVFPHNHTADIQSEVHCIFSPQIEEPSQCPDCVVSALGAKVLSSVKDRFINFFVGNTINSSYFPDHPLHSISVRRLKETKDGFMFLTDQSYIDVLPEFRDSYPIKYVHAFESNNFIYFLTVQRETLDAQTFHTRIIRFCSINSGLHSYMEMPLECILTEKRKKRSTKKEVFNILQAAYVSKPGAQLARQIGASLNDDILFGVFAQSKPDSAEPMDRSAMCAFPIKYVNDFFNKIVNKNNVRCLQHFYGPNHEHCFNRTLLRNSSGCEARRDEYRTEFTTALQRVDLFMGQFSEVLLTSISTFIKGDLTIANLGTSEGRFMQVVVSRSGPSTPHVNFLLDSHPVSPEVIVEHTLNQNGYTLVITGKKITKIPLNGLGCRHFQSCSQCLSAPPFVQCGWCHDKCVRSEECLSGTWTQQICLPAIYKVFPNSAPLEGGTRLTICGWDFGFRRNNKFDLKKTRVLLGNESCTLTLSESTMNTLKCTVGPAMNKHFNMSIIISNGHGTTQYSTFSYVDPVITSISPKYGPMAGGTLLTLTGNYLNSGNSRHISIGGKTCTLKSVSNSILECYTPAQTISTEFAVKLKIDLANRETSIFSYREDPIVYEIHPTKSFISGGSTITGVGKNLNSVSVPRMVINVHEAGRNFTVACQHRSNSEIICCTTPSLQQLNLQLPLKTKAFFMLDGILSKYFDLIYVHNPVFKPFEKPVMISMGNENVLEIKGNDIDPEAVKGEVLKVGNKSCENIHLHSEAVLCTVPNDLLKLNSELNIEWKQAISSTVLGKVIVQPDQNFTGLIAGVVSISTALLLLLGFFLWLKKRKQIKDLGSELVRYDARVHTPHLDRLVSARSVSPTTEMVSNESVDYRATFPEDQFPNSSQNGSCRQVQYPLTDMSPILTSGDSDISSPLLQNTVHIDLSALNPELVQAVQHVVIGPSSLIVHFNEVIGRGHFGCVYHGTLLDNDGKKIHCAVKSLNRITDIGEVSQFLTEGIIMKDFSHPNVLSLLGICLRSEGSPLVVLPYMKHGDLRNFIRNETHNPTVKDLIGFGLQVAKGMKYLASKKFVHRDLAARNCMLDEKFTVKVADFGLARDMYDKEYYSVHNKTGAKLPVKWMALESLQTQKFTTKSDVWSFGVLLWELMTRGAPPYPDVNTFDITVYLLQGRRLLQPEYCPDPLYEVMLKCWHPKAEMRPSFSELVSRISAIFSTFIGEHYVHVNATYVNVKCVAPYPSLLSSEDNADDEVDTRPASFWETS

Experiment [4] has as its target Human MET (residues 956-1390) (Homo sapiens (Human), UniProt P08581). Briefly: Human Met kinase assay, HTRF KinEase (Example D-2). The class given is biochemical. Conditions: protocol of Example D-2 (other compounds); read-out: c-Met IC50. In a few lines: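 IC50 values come from a 4-parameter logistic fit of the […] fluorescence ratio, set between DMSO (100%) and reference compound at 1 μM (0%). Reactions held MET 956-1390 at 0.1 ng/well, ATP at Km, biotinylated peptide, 5 mM MgCl2, 1 mM MnCl2, 1 mM DTT and 3% DMSO, and ran 40 min at room temperature before streptavidin-XL665/Eu-antibody detection.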

Chain of Human MET (residues 956-1390) (P08581 956-1390): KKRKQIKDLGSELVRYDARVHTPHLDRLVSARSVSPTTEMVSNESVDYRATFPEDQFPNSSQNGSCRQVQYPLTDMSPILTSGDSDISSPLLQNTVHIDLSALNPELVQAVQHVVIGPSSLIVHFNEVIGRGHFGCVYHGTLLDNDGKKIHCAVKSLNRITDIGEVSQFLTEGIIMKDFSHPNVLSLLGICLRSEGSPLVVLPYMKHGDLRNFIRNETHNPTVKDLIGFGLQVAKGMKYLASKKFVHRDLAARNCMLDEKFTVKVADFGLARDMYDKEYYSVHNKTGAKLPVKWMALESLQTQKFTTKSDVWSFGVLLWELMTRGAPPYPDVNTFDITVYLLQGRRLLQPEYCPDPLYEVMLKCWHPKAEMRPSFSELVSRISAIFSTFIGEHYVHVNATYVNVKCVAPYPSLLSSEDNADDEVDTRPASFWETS

`COc1cc2nccc(Oc3ccc(NC(=O)c4cn(OC)cc(-c5ccc(F)cc5)c4=O)cc3F)c2nc1OC` [Compound 126, N-[4-[(6,7-Dimethoxy-1,5-naphthyridin-4-yl)oxy]-3-fluorophenyl]-5-(4-fluorophenyl)-1-methoxy-4-oxopyridine-3-carboxamide]: the IC50 in experiment [1], in experiment [2], in experiment [3] and in experiment [4] was less than 0.1 µM throughout.
Turning to `COc1cc2nccc(Oc3ccc(NC(=O)c4cn(OC)cc(-c5ccc(F)cc5)c4=O)cc3)c2nc1OC` [Compound 127, N-[4-[(6,7-Dimethoxy-1,5-naphthyridin-4-yl)oxy]phenyl]-5-(4-fluorophenyl)-1-methoxy-4-oxopyridine-3-carboxamide], the IC50 in experiment [1], in experiment [2], in experiment [3] and in experiment [4] was less than 0.1 µM each time.
For the molecule `COc1cnc2c(Oc3ccc(NC(=O)c4cn(OC)cc(-c5ccc(F)cc5)c4=O)cc3F)ccnc2c1` [Compound 128, N-[3-Fluoro-4-[(7-methoxy-1,5-naphthyridin-4-yl)oxy]phenyl]-5-(4-fluorophenyl)-1-methoxy-4-oxopyridine-3-carboxamide], the IC50 in experiment [1], in experiment [2], in experiment [3] and in experiment [4] was less than 0.1 µM each time.
As for `COc1nc2c(Oc3ccc(NC(=O)c4cncc(-c5ccc(F)cc5)c4O)cc3F)ccnc2cc1Br` [Compound 129, N-[4-[(7-Bromo-6-methoxy-1,5-naphthyridin-4-yl)oxy]-3-fluorophenyl]-5-(4-fluorophenyl)-4-hydroxypyridine-3-carboxamide], the half-maximal inhibitory concentration (IC50) is less than 0.1 µM in experiment [1], less than 0.1 µM in experiment [2], 0.1 to 0.3 µM in experiment [3] and less than 0.1 µM in experiment [4].
Consider `COc1nc2c(Oc3ccc(NC(=O)c4cnc(C)c(-c5ccc(F)cc5)c4O)cc3F)ccnc2cc1Br` [Compound 130, N-[4-[(7-Bromo-6-methoxy-1,5-naphthyridin-4-yl)oxy]-3-fluorophenyl]-5-(4-fluorophenyl)-4-hydroxy-6-methylpyridine-3-carboxamide], for which the IC50 in experiment [1], in experiment [2], in experiment [3] and in experiment [4] was less than 0.1 µM each time.
For `COc1nc2c(Oc3ccc(NC(=O)c4cn(C(C)C)cc(-c5ccc(F)cc5)c4=O)cc3F)ccnc2cc1Br` [Compound 131, N-[4-[(7-Bromo-6-methoxy-1,5-naphthyridin-4-yl)oxy]-3-fluorophenyl]-5-(4-fluorophenyl)-4-oxo-1-propan-2-ylpyridine-3-carboxamide], the IC50 in experiment [1], in experiment [2], in experiment [3] and in experiment [4] was less than 0.1 µM each time.
For the molecule `COc1nc2c(Oc3ccc(NC(=O)c4cn(C(C)C)c(C)c(-c5ccc(F)cc5)c4=O)cc3F)ccnc2cc1Br` [Compound 132, N-[4-[(7-Bromo-6-methoxy-1,5-naphthyridin-4-yl)oxy]-3-fluorophenyl]-5-(4-fluorophenyl)-6-methyl-4-oxo-1-propan-2-ylpyridine-3-carboxamide], the IC50 is less than 0.1 µM in experiment [1], less than 0.1 µM in experiment [2], 0.1 to 0.3 µM in experiment [3] and less than 0.1 µM in experiment [4].
For the molecule `COC(=O)c1cnc2c(Oc3ccc(NC(=O)c4cnc(C)c(-c5ccc(F)cc5)c4O)cc3F)ccnc2c1` [Compound 138, Methyl 8-[2-fluoro-4-[[5-(4-fluorophenyl)-4-hydroxy-6-methylpyridine-3-carbonyl]amino]phenoxy]-1,5-naphthyridine-3-carboxylate], the IC50 in experiment [1] was 0.1 to 0.3 µM; in experiment [2], 0.1 to 0.3 µM; in experiment [3] it was more than 0.3 µM; in experiment [4] it was less than 0.1 µM.
`COc1cc2nccc(Oc3ccc(NC(=O)c4cn(C(C)(C)C)c(C)c(-c5ccc(F)cc5)c4=O)cc3F)c2nc1OC` [Compound 139, 1-tert-Butyl-N-[4-[(6,7-dimethoxy-1,5-naphthyridin-4-yl)oxy]-3-fluorophenyl]-5-(4-fluorophenyl)-6-methyl-4-oxopyridine-3-carboxamide]: the IC50 in experiment [1] was less than 0.1 µM; in experiment [2], less than 0.1 µM; in experiment [3], 0.1 to 0.3 µM; in experiment [4], less than 0.1 µM.
`COc1cc2nccc(Oc3ccc(NC(=O)c4cn(-c5cnn(C)c5)c(C)c(-c5ccc(F)cc5)c4=O)cc3F)c2nc1OC` [Compound 140, N-[4-[(6,7-Dimethoxy-1,5-naphthyridin-4-yl)oxy]-3-fluorophenyl]-5-(4-fluorophenyl)-6-methyl-1-(1-methylpyrazol-4-yl)-4-oxopyridine-3-carboxamide]: the IC50 in experiment [1], in experiment [2], in experiment [3] and in experiment [4] was less than 0.1 µM in each case.
With `COc1cc2nccc(Oc3ccc(NC(=O)c4cnc(C)c(-c5ccc(F)cc5)c4O)cc3F)c2nc1Br` [Compound 142, N-[4-[(6-Bromo-7-methoxy-1,5-naphthyridin-4-yl)oxy]-3-fluorophenyl]-5-(4-fluorophenyl)-4-hydroxy-6-methylpyridine-3-carboxamide], the IC50 in experiment [1], in experiment [2], in experiment [3] and in experiment [4] was less than 0.1 µM in each case.
For `COc1cc2nccc(Oc3ccc(NC(=O)c4cn(C(C)C)c(C)c(-c5ccc(F)cc5)c4=O)cc3F)c2nc1Br` [Compound 143, N-[4-[(6-Bromo-7-methoxy-1,5-naphthyridin-4-yl)oxy]-3-fluorophenyl]-5-(4-fluorophenyl)-6-methyl-4-oxo-1-propan-2-ylpyridine-3-carboxamide], the concentration for half-maximal inhibition (IC50) in experiment [1], in experiment [2], in experiment [3] and in experiment [4] was less than 0.1 µM in each case.
On to `COCCOc1nc2c(Oc3ccc(NC(=O)c4cnc(C)c(-c5ccc(F)cc5C)c4O)cc3F)ccnc2cc1OC` [Compound 144, N-[3-Fluoro-4-[[7-methoxy-6-(2-methoxyethoxy)-1,5-naphthyridin-4-yl]oxy]phenyl]-5-(4-fluoro-2-methylphenyl)-4-hydroxy-6-methylpyridine-3-carboxamide], for which the IC50 in experiment [1], in experiment [2], in experiment [3] and in experiment [4] was less than 0.1 µM each time.
Regarding `COc1cnc2c(Oc3ccc(NC(=O)c4cncc(-c5ccc(F)cc5)c4O)cc3)ccnc2c1` [Compound 146, 5-(4-Fluorophenyl)-4-hydroxy-N-[4-[(7-methoxy-1,5-naphthyridin-4-yl)oxy]phenyl]pyridine-3-carboxamide], the IC50 in experiment [1], in experiment [2], in experiment [3] and in experiment [4] was less than 0.1 µM in each case.
As for `COc1cnc2c(Oc3ccc(NC(=O)c4cn(C(C)C)c(C)c(-c5ccc(F)cc5)c4=O)cc3)ccnc2c1` [Compound 148, 5-(4-Fluorophenyl)-N-[4-[(7-methoxy-1,5-naphthyridin-4-yl)oxy]phenyl]-6-methyl-4-oxo-1-propan-2-ylpyridine-3-carboxamide], the IC50 in experiment [1], in experiment [2], in experiment [3] and in experiment [4] was less than 0.1 µM each time.

One may read the IC50 as the concentration that gives 50% inhibition.
